The source made the active and inactive calls.
Key:
[1] = biological target: T1, Cysteine protease ATG4B (Homo sapiens, UniProt Q9Y4P1); type: functional;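 note: Fluorescence-based dose-response confirmation assay measuring inhibition of ATG4B activity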
T1 sequence (Q9Y4P1 whole entry): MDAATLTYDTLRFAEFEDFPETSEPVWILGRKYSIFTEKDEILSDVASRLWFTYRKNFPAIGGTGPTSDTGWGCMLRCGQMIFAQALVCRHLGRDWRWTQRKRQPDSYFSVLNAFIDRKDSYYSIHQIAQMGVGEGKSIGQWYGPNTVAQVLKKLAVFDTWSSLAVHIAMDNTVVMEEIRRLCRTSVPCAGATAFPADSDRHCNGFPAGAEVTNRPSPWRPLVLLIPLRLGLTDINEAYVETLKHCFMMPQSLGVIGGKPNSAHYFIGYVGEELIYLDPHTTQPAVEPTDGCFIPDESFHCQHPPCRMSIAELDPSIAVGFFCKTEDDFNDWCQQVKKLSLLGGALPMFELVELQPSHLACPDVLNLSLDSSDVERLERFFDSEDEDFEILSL

[2] = biological target: Heat shock protein HSP 90-alpha (Homo sapiens, UniProt P07900); type: functional, organism-based
[3] = biological target: Phospholipase A2 (Homo sapiens, UniProt P04054); type: functional;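 note: confirmatory dose-response counterscreen on phospholipase A2, testing hits that came from an ultra-high-throughput screen for ATG4B inhibitors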
[4] = HeLa cell cytotoxicity, dose response, cytotoxicity control for MgcRacGAP inhibitor project (AID 624300); type: functional
[5] = biological target: T2, Rac GTPase-activating protein 1 (Homo sapiens, UniProt Q9H0H5); test: MgcRacGAP GTPase-activating activity inhibitors, confirmation, biochemical, ADP Hunter fluorescence, primary and confirmatory (AID 624330); type: functional
T2 sequence (Q9H0H5 whole entry): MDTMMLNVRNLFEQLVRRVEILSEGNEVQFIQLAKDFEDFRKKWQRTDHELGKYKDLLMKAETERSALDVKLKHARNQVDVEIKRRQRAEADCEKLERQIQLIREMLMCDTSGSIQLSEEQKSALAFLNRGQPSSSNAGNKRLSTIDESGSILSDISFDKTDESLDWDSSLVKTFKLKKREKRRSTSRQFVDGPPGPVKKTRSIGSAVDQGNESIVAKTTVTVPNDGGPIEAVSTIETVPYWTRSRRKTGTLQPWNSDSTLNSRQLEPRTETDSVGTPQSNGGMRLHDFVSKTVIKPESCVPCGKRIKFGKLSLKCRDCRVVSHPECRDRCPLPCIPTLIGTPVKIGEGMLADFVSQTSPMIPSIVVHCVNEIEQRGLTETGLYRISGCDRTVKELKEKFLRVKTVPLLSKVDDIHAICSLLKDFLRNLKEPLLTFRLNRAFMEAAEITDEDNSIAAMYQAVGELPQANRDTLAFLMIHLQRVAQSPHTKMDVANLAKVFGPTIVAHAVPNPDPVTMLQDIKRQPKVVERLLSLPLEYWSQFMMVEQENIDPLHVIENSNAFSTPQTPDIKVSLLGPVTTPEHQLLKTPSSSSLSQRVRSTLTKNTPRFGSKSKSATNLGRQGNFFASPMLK

[6] = biological target: T3, DNA repair protein RAD52 homolog (Homo sapiens, UniProt P43351); type: functional, biochemical
T3 sequence (P43351 whole entry): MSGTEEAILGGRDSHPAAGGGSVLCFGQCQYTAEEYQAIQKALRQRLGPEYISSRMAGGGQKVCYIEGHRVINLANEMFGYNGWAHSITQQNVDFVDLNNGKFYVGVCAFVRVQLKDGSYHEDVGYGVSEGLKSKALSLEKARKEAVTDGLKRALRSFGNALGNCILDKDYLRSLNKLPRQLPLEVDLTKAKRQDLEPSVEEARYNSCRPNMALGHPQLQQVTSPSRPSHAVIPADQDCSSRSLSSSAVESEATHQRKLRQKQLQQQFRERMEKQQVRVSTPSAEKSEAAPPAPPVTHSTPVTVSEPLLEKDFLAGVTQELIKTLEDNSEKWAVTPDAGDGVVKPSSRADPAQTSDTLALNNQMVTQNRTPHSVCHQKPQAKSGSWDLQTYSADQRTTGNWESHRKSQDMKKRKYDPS

[7] = HeLa 2N DNA content increase, dose response, cell-based, IC50 (AID 1117349); type: functional
[8] = Concentration-dependent survival of SW480 colon cancer line, luminescence detection with CellTiter-Glo, half-maximal inhibitory concentration (AID 1117338); type: functional
[9] = RKO cell viability reduction, dose response, CellTiter-Glo luminescence (AID 1117322); type: functional
[10] = cytotoxicity toward HCT116 cells – cell-based, CellTiter-Glo luminescence, IC50, dose response (AID 1117332); type: functional; conditions: HCT-116
[11] = SNU-C1 cell viability reduction, dose response, CellTiter-Glo luminescence (AID 1117323); type: functional, cell-based
[12] = cells; type: functional, cell-based; conditions: INS-1E
[13] = half-maximal inhibitory concentration for glucagon-like peptide-1 release, STC-1 cell line, dose-response (AID 1117345); type: functional, cell-based
[14] = cytotoxicity toward Colo320 cells – cell-based, CellTiter-Glo luminescence, IC50, dose response (AID 1117334); type: functional; conditions: COLO 320
[15] = HeLa 4N DNA content increase, dose response, cell-based, IC50 (AID 1117351); type: functional
[16] = cytotoxicity toward HT-29 cells – cell-based, CellTiter-Glo luminescence, IC50, dose response (AID 1117330); type: functional
[17] = CellTiter-Glo luminescent dose response of DLD-1 viability loss (AID 1117352); type: functional
[18] = HCT116 cell viability decrease, GSK3B pretreatment – CellTiter-Glo, IC50, dose response (AID 1117339); type: functional; conditions: HCT-116
[19] = Glucagon-like peptide 1 release potency, NCI-H716 cell line, dose-response, half-maximal inhibitory concentration (AID 1117344); type: functional, cell-based
[20] = HepG2 cell cytotoxicity, dose response, cytotoxicity control, CellTiter-Glo luminescence, dry powder, set 20 (AID 1117291); type: functional, cell-based
[21] = A549 cell cytotoxicity, dose response, cytotoxicity control, CellTiter-Glo luminescence, dry powder, set 18 (AID 1117290); type: functional, cell-based
[22] = biological target: Paired box protein Pax-8 (Homo sapiens, UniProt Q06710); test: inhibitors of PAX8-driven TPO luciferase reporter, dose response, RMG-I cells, cherry-pick (AID 687027); type: functional, cell-based;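 note: luciferase reporter driven by Pax8 target thyroperoxidase promoter measured by SteadyGlo luminescence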
[23] = IOSE-T80 ovarian epithelial cell cytotoxicity, dose response, cytotoxicity control for PAX8 inhibitor project, plate reader, dry powder samples (AID 743045); type: functional, cell-based
[24] = A549 cell cytotoxicity, dose response, cytotoxicity control, 24 h, CellTiter-Glo luminescence, cherry-picks (AID 1053115); type: functional, cell-based; conditions: A549, 24 h
[25] = NIH:OVCAR-3 ovarian cancer cell cytotoxicity, dose response, PAX8 inhibitor project, plate reader, dry powder samples (AID 743044); type: functional, cell-based
[26] = IGROV1 ovarian cancer cell cytotoxicity, dose response, PAX8 inhibitor project, plate reader, dry powder samples (AID 743043); type: functional, cell-based; conditions: IGROV-1
[27] = HEK293T cytotoxicity, dose response, cytotoxicity control for miR-122 modulator project, cell-based, inhibitor set, cherry-pick, set 2 (AID 720697); type: functional
[28] = HEK293T cytotoxicity, dose response, cytotoxicity control for miR-122 modulator project, cell-based, activator set, cherry-pick (AID 720690); type: functional;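 note: HEK293T human cells scored for general mammalian cytotoxicity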
[29] = cytotoxicity in OVCAR8 ovarian cancer cells, dose response, PAX8 project, cell-based, plate reader, dry powder samples (AID 743197); type: functional; conditions: OVCAR-8
[30] = A549 cell cytotoxicity, dose response, CellTiter-Glo luminescence, dry powder, set 17 (AID 1117284); type: functional, cell-based
[31] = biological target: Cytochrome P450 2C19 (Homo sapiens, UniProt P33261); test: Cytochrome panel assay with activity outcomes. Panel member name: p450-cyp2c19 Compounds with AC50 equal or less than 10 uM are considered active; type: functional
[32] = P. falciparum late gametocyte killing, dose response, luminescence (AID 1117278); type: functional, cell-based;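 note: gametocytes exposed to compound for 24 hours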
[33] = Jurkat T cell cytotoxicity, dose response, cytotoxicity control for P. falciparum gametocyte viability project, luminescence (AID 1117277); type: functional, cell-based;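 note: potency reflects loss of cellular ATP meaning fewer viable cells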
[34] = biological target: T4, Cytochrome P450 1A2 (Homo sapiens, UniProt P05177);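 note: PubChem cytochrome P450 panel assay, CYP1A2 panel member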
T4 sequence (P05177 whole entry): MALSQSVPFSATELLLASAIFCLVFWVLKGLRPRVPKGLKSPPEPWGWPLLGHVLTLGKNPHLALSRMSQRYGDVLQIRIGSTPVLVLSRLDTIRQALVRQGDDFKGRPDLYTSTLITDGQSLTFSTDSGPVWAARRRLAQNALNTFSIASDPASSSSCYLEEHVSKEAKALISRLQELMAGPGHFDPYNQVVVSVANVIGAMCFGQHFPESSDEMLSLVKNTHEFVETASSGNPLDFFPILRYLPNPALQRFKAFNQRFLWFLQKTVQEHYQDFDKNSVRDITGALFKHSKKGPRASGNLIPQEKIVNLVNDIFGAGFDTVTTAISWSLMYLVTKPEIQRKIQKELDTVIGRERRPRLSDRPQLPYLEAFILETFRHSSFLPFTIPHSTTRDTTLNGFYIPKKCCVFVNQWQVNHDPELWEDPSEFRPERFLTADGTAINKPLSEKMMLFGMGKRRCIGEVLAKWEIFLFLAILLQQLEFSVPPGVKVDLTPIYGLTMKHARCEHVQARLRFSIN

Chain of Phospholipase A2 (P04054 whole entry): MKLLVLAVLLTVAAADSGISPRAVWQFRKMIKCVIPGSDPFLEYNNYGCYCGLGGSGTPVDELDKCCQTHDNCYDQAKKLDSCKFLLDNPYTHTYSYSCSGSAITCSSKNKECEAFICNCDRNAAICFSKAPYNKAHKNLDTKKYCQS
Chain of Cytochrome P450 2C19 (P33261 whole entry): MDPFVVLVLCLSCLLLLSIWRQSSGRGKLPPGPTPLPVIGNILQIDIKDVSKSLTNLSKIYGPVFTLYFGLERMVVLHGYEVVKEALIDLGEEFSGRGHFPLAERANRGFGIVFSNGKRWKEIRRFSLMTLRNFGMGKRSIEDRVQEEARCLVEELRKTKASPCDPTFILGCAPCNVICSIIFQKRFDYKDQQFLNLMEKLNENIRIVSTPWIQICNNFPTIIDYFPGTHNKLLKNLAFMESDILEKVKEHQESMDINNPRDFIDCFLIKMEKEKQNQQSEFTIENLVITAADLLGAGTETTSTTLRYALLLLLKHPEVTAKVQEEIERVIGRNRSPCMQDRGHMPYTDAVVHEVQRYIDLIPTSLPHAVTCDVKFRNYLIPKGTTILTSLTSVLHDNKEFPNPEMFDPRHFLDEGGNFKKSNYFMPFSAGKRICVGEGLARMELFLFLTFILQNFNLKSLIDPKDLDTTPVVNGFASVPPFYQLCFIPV
Chain of Paired box protein Pax-8 (Q06710 whole entry): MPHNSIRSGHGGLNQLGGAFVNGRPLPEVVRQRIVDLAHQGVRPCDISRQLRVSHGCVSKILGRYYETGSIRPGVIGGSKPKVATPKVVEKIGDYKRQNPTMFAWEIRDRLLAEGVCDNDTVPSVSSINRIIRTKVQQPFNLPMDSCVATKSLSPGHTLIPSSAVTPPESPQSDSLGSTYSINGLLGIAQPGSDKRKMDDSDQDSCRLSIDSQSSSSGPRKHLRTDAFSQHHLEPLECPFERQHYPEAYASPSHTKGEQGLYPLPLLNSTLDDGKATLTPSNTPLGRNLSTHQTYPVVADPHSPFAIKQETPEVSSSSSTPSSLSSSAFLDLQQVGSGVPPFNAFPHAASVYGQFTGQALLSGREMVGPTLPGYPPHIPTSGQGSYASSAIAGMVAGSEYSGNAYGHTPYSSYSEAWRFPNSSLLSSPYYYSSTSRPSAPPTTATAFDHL

CCCCCCCCCCCCCCCC[n+]1ccccc1
inactive: IC50 [12] > 33.3 µM | IC50 [13] > 20 µM | IC50 [15] > 10 µM | IC50 [19] 14.8 µM
active: IC50 [1] 7.14 µM | AC50 [2] 4.22 µM | IC50 [3] 8.34 µM | CC50 [4] 11.8 µM | IC50 [5] 61.1 µM | AC50 [6] 3.79 µM | IC50 [7] 1.25 µM | IC50 [8] 1.61 µM | IC50 [9] 1.27 µM | IC50 [10] 1.19 µM | IC50 [11] 0.934 µM | IC50 [14] 1.64 µM | IC50 [16] 2.29 µM | IC50 [17] 1.93 µM | IC50 [18] 2.29 µM

COc1ccc(S(=O)(=O)Nc2cc(C(F)(F)F)ccc2N2CCCCC2)cc1
active: AC50 [20] 33.8 µM | AC50 [21] 46 µM

C[C@H](O)C#Cc1ccc2c(c1)O[C@H](CN(C)Cc1ccc(-c3ccccc3)cc1)[C@@H](C)CN([C@@H](C)CO)S2(=O)=O
inactive: AC50 [24] > 60 µM
active: AC50 [22] 3.42 µM | AC50 [23] 3.37 µM | AC50 [25] 10.7 µM | AC50 [26] 15.9 µM | AC50 [27] 1.58 µM | AC50 [28] 15.2 µM | AC50 [29] 43.2 µM | AC50 [30] 37.9 µM

CCCCC1(C)NC(=O)c2c(C)sc(C(=O)OCC)c2N1 (centres undefined)
inconclusive: AC50 [31] 2.24 µM | AC50 [34] 14.1 µM
inactive: IC50 [32] > 109 µM | IC50 [33] > 83.3 µM
